Data taken from patent publication US9238016B2, “Antibiotic composition comprising flufenamic acid as an active ingredient” (SUNGKYUNKWAN UNIVERSITY FOUNDATION FOR CORPORATE …, priority 2010, dated 2016).
Converted amounts (≈) assume the structure as drawn. Each block holds one compound with its values, some of them ahead of it.

Legend:
MRSA [1] = assay: MICs of antibiotics against MRSA in the presence of flufenamic acid (synergy); assay type: cell-based, Staphylococcus aureus; conditions: for susceptibility of MRSA to the antibiotic in the presence of FLF: with FLF (FIG. 4B, 4C)
[2] = system: Staphylococcus epidermidis; assay: Growth inhibition, cell density OD 600 nm; assay type: cell-based; conditions: 20~40 μg/mL FLF, 8 hours
Description: (§1) FLF was examined for inhibitory activity against various bacteria. Staphylococcus epidermidis, Bacillus subtilis, Listeria monocytogenes and Enterococcus faecium were cultured overnight and 200-fold diluted in 2 mL of LB containing various concentrations of FLF. Cell densities were determined by measuring the OD at 600 nm after incubation at 37° C. for 8 hours. The MICs of FLF were determined using a broth dilution method. In brief, bacteria were inoculated into LB containing serially diluted concentrations of FLF in 96-well microplates. After 24 hours of incubation, bacterial growth was examined. Antibacterial activity of FLF was tested over various Gram-positive bacteria including Staphylococcus epidermidis, Bacillus subtilis, Listeria monocytogenes, and Enterococcus faecium.

Bacillus subtilis = assay: Growth inhibition, cell density OD 600 nm; assay type: cell-based; conditions: 20~40 μg/mL FLF, 8 hours
Description: as §1

Enterococcus faecium = assay: Growth inhibition, cell density OD 600 nm; assay type: cell-based; conditions: 20~40 μg/mL FLF, 8 hours
Description: as §1

Listeria monocytogenes = assay: Growth inhibition, cell density OD 600 nm; assay type: cell-based; conditions: 20~40 μg/mL FLF, 8 hours
Description: as §1

B. subtilis = assay: MIC by broth dilution method; assay type: cell-based; conditions: Bacillus subtilis, 24 hours of incubation
Description: as §1

E. faecium = assay: MIC by broth dilution method; assay type: cell-based; conditions: Enterococcus faecium, 24 hours of incubation
Description: as §1

S. epidermidis = assay: MIC by broth dilution method; assay type: cell-based; conditions: Staphylococcus epidermidis, 24 hours of incubation
Description: as §1

L. monocytogenes = assay: MIC by broth dilution method; assay type: cell-based; conditions: Listeria monocytogenes, 24 hours of incubation
Description: as §1

S. aureus MRSA = assay: MIC by broth dilution method; assay type: cell-based, Staphylococcus aureus
Description: (§2) FLF was assayed for inhibitory activity against Methicillin-resistant staphylococcus aureus (MRSA). In this regard, Methicillin-resistant Staphylococcus aureus (MRSA) was cultured overnight and 200-fold diluted in 2 mL of LB containing various concentrations of FLF. After additional incubation at 37° C. for 8 hours, cell densities were measured by recoding OD at 600 nm.
as §1

S. aureus MSSA = assay: MIC by broth dilution method; assay type: cell-based; conditions: Staphylococcus aureus, 24 hours of incubation
[3] = system: Methicillin-resistant Staphylococcus aureus (MRSA); assay: Growth inhibition, cell density OD 600 nm; assay type: cell-based; conditions: 8 h, read-out: growth inhibited
Description: as §2

SA1606 [4] = molecular target: T1, SA1606 (Staphylococcus aureus, UniProt Q2FXE2); assay: Aldo-keto reductase enzymatic assay (NADPH absorbance 340 nm, methylglyoxal); assay type: biochemical, S. aureus; conditions: 0.5 mM NADPH, 5 mM methylglyoxal, 10 μM enzyme, pH 7.0
T1 sequence (Q2FXE2 1-277 N135K/V136A/R184H/A227G/T230I/K274T): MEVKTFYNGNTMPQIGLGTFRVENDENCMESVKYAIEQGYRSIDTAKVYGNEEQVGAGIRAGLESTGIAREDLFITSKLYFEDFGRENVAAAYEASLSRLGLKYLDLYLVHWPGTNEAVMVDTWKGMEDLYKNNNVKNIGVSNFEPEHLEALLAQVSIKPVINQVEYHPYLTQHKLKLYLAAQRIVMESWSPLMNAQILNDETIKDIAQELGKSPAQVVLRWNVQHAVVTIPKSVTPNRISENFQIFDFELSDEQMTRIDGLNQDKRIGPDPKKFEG
Description: (§3) Aldo-keto reductase (AKR) activity was measured to examine whether FLF inhibits the enzymatic activities of SA1606 and SA2001 on the basis of the data of Example 8 showing the binding of FLF to SA16006 and SA2001. On the whole, bacterial AKR catalyzes the reduction of various chemicals with NADPH. […] As is evidenced in Example 6, SA1606 and SA2001 have structural and functional similarity with the human aldo-keto reductase AKR1C3 and the bacterial aldo-keto reductase DkgA. Thus, the enzymatic activity of […] was measured to analyze the inhibitory activity of FLF. The reaction for evaluating enzymatic activity was comprised of 0.5 mM NADPH, 5 mM methylglyoxal and 10 μM aldo-keto reductase in 50 mM sodium phosphate buffer, pH 7.0. Absorbance at 340 nm of the reaction was measured for 10 min to calculate the consumption of NADPH.

SA2001 [5] = molecular target: T2, SA2001 (Staphylococcus aureus, UniProt Q2FW57); assay: as above; assay type: biochemical, S. aureus; conditions: 0.5 mM NADPH, 5 mM methylglyoxal, 10 μM enzyme, pH 7.0
T2 sequence (Q2FW57 1-279 N2D): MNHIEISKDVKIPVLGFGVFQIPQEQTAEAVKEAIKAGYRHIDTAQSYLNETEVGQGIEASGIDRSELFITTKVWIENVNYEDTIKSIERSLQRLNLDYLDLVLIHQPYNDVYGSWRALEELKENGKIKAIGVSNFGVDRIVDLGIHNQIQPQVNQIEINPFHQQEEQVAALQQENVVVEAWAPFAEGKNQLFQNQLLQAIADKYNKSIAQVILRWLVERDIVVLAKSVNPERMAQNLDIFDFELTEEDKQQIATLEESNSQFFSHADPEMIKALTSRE
Description: as §3

SA1606 [6] = molecular target: T1, SA1606; assay: Binding affinity by isothermal titration calorimetry; parameters: species or system S. aureus; conditions: ITC, 10 mM HEPES pH 7.0, 3% DMSO; read-out: dissociation constant (Kd)
From the text: (§4) Genes of SA1606 (GenBank number: BAB42874) and […] (GenBank number: BAB43292) were amplified using PCR with the genomic DNA of S. aureus N315 serving as a template. PCR primers were 5′-[…] […]-3′ (SEQ ID NO: 4) and 5′-[…]-3′ (SEQ ID NO: 5) for SA1606, and 5′-[…]-3′ (SEQ ID NO: 6) and 5′-5 […]-3′ (SEQ ID NO: 7) for SA2001. Ncol and Xhol restriction sites were incorporated into the forward primer sequences and the reverse primer sequences, respectively. The PCR products were digested with Ncol and Xhol and inserted into Ncol/Xhol-digested pET28a vectors (Novagen). The DNAs 10 thus ligated were transformed into E. coli BL21 DE3 (Invitrogen). Coding sequences of the cloned genes SA1606 and SA2001 were confirmed by nucleotide sequencing. Recombinant SA1606 and SA2001 with histidine tag at the C-terminus were expressed in E. coli and then loaded into Hi-Trap chelating 15 columns (GE Healthcare) equilibrated with buffer A (20 mM HEPES, pH 7.5, 50 mM imadazole and 500 mM NaCl). […]
(§5) Binding affinity for SA1606 and SA2001 of FLF was measured using VP-ITC Micro calorimeter (MicroCal Inc). […] Thereafter, the affinity of FLF for the proteins were calculated on the basis of the heat generated upon the binding of FLF to the proteins. The data was analyzed with ORIGIN software (MicroCal Inc).

SA2001 [7] = molecular target: T3, SA2001 (Staphylococcus aureus, UniProt Q2FW57, N2D); assay: as above; parameters: species or system S. aureus; conditions: ITC, 10 mM HEPES pH 7.0, 3% DMSO; read-out: dissociation constant (Kd)
T3 sequence (Q2FW57 1-279 N2D): T2 sequence (Q2FW57 1-279 N2D)
From the text: as §4, §5

MRSA [8] = assay: Screening of Prestwick chemical library for inhibitory activity against bacteria; assay type: cell-based, S. aureus; conditions: 100 μg/mL, 24 hours
Description: To screen compounds having inhibitory activity against bacteria, MRSA was 200-fold diluted in 0.2 mL of LB in 96-well microplates and cultured overnight at 37° C. with agitation at 180 RPM. Prestwick chemical library was added at a final concentration of 100 μg/mL per well. The microplates were incubated at 37° C. for 24 hours with agitation at 180 RPM and the optical density at 600 nm was measured.

MICs of antibiotic against MRSA (MRSA [1]; 10 μg/ml FLF): 128 µg/mL | MICs of antibiotic against MRSA (MRSA [1]; 20 μg/ml FLF): 64 µg/mL | MICs of antibiotic against MRSA (MRSA [1]; 30 μg/ml FLF): 16 µg/mL | MICs of antibiotic against MRSA (MRSA [1]; 40 μg/ml FLF): 4 µg/mL | MICs of antibiotic against MRSA (MRSA [1]; No FLF): 128 µg/mL
SMILES: CC(=O)OCC1=C(C(=O)O)N2C(=O)[C@@H](NC(=O)Cc3cccs3)[C@H]2SC1 [Cephalothin]
susceptibility of MRSA to the antibiotic in the presence of FLF (MRSA [1]): far more susceptible

SMILES: O=C(O)c1ccccc1Nc1cccc(C(F)(F)F)c1 [FLF, flufenamic acid]
growth inhibited [2]: 90% | growth inhibited (Bacillus subtilis): 90% | growth inhibited (Enterococcus faecium): 90% | growth inhibited (Listeria monocytogenes): 90% | synergistic effect with classical antibiotics (MRSA [1]; FLF in combination with Norfloxacin, Oxacillin or Cephalothin, MRSA): synergistically inhibited | MIC (B. subtilis): 32 µg/mL (≈ 114 µM) | MIC (E. faecium): 32 µg/mL (≈ 114 µM) | MIC (S. epidermidis): 64 µg/mL (≈ 228 µM) | MIC (L. monocytogenes): 32 µg/mL (≈ 114 µM) | MICs (S. aureus MRSA; S. aureus MRSA, 24 hours of incubation): 64 µg/mL | MIC (S. aureus MRSA; Staphylococcus aureus, MRSA, 24 h, read-out: MICs): 64 µg/mL (≈ 228 µM) | MIC (S. aureus MSSA): 64 µg/mL (≈ 228 µM) | inhibition at 40 µg/mL [3]: 90% | enzymatic activity (reduction of methylglyoxal with NADPH) in the presence of FLF (SA1606 [4]): inhibited | enzymatic activity (reduction of methylglyoxal with NADPH) in the presence of FLF (SA2001 [5]): inhibited | Kd (SA1606 [6]): 14.5 µM | Kd (SA2001 [7]): 38.1 µM | inhibitory activity against bacteria (OD 600 nm) in library screen (MRSA [8]): most inhibitory

MICs of antibiotic against MRSA (MRSA [1]; 10 μg/ml FLF): 64 µg/mL | MICs of antibiotic against MRSA (MRSA [1]; 20 μg/ml FLF): 32 µg/mL | MICs of antibiotic against MRSA (MRSA [1]; 30 μg/ml FLF): 16 µg/mL | MICs of antibiotic against MRSA (MRSA [1]; 40 μg/ml FLF): 8 µg/mL | MICs of antibiotic against MRSA (MRSA [1]; No FLF): 128 µg/mL
SMILES: CCn1cc(C(=O)O)c(=O)c2cc(F)c(N3CCNCC3)cc21 [Norfloxacin]

SMILES: Cc1onc(-c2ccccc2)c1C(=O)N[C@@H]1C(=O)N2[C@@H]1SC(C)(C)[C@@H]2C(=O)O [Oxacillin]
MICs of antibiotic against MRSA (MRSA [1]; 10 μg/ml FLF): 256 µg/mL | MICs of antibiotic against MRSA (MRSA [1]; 30 μg/ml FLF): 32 µg/mL | MICs of antibiotic against MRSA (MRSA [1]; 40 μg/ml FLF): 8 µg/mL | MICs of antibiotic against MRSA (MRSA [1]; No FLF): >256 µg/mL | susceptibility of MRSA to the antibiotic in the presence of FLF (MRSA [1]): far more susceptible
